ChEMBL document CHEMBL3112491, “3-(5-)-Amino-o-diarylisoxazoles: regioselective synthesis and antitubulin activity” (2014)

Tests used:
Type in all cases: functional
[1] = test system: SNB-19; assay: Growth inhibition of human SNB19 cells after 48 hrs by sulforhodamine B assay; settings: SNB-19, 48 h
[2] = test system: T47D; assay: Growth inhibition of human T47D cells after 48 hrs by sulforhodamine B assay
[3] = test system: M14; assay: Growth inhibition of human M14 cells after 48 hrs by sulforhodamine B assay; settings: M14, 48 h
[4] = test system: SK-OV-3; assay: Growth inhibition of human SKOV3 cells after 48 hrs by sulforhodamine B assay; settings: SK-OV-3, 48 h
[5] = Growth inhibition of human OVCAR5 cells after 48 hrs by sulforhodamine B assay; settings: OVCAR-5, 48 h
[6] = test system: BT-549; assay: Growth inhibition of human BT549 cells after 48 hrs by sulforhodamine B assay; settings: BT-549, 48 h
[7] = test system: HOP-62; assay: Growth inhibition of human HOP62 cells after 48 hrs by sulforhodamine B assay; settings: HOP-62, 48 h
[8] = test system: IGROV-1; assay: Growth inhibition of human IGROV1 cells after 48 hrs by sulforhodamine B assay; settings: IGROV-1, 48 h
[9] = Growth inhibition of human Hs 578T cells after 48 hrs by sulforhodamine B assay
[10] = test system: SK-MEL-28; assay: Growth inhibition of human SK-MEL-28 cells after 48 hrs by sulforhodamine B assay; settings: SK-MEL-28, 48 h
[11] = test system: NCI-H23; assay: Growth inhibition of human NCI-H23 cells after 48 hrs by sulforhodamine B assay; settings: NCI-H23, 48 h
[12] = test system: SK-MEL-5; assay: Growth inhibition of human SK-MEL-5 cells after 48 hrs by sulforhodamine B assay; settings: SK-MEL-5, 48 h
[13] = test system: NCI-H522; assay: Growth inhibition of human NCI-H522 cells after 48 hrs by sulforhodamine B assay; settings: NCI-H522, 48 h
[14] = Growth inhibition of human HOP92 cells after 48 hrs by sulforhodamine B assay; settings: HOP-92, 48 h
[15] = test system: SNB-75; assay: Growth inhibition of human SNB75 cells after 48 hrs by sulforhodamine B assay; settings: SNB-75, 48 h
[16] = test system: COLO 205; assay: Growth inhibition of human COLO205 cells after 48 hrs by sulforhodamine B assay; settings: COLO 205, 48 h
[17] = test system: A549; assay: Growth inhibition of human A549/ATCC cells after 48 hrs by sulforhodamine B assay; settings: A549, 48 h
[18] = test system: MDA-MB-231; assay: Growth inhibition of human MDA-MB-231 cells after 48 hrs by sulforhodamine B assay; settings: MDA-MB-231, 48 h
[19] = test system: Paracentrotus lividus; assay: Antimitotic activity in sea urchin fertilized egg assessed as cleavage alteration treated at 8 to 20 mins post-fertilization measured at 2.5 to 5.5 hrs post-fertilization
[20] = test system: CAKI-1; assay: Growth inhibition of human CAKI-1 cells after 48 hrs by sulforhodamine B assay; settings: CAKI-1, 48 h
[21] = test system: NCI-H322M; assay: Growth inhibition of human NCI-H322M cells after 48 hrs by sulforhodamine B assay
[22] = Growth inhibition of human UO31 cells after 48 hrs by sulforhodamine B assay; settings: UO-31, 48 h
[23] = test system: HT-29; assay: Growth inhibition of human HT-29 cells after 48 hrs by sulforhodamine B assay; settings: HT-29, 48 h
[24] = test system: MDA-MB-468; assay: Growth inhibition of human MDA-MB-468 cells after 48 hrs by sulforhodamine B assay; settings: MDA-MB-468, 48 h
[25] = test system: OVCAR-8; assay: Growth inhibition of human OVCAR8 cells after 48 hrs by sulforhodamine B assay; settings: OVCAR-8, 48 h
[26] = Growth inhibition of human RXF393 cells after 48 hrs by sulforhodamine B assay; settings: RXF 393, 48 h
[27] = Growth inhibition of human OVCAR4 cells after 48 hrs by sulforhodamine B assay; settings: OVCAR-4, 48 h
[28] = Growth inhibition of human UACC257 cells after 48 hrs by sulforhodamine B assay; settings: UACC-257, 48 h
[29] = test system: SN12C; assay: Growth inhibition of human SN12C cells after 48 hrs by sulforhodamine B assay
[30] = test system: PC-3; assay: Growth inhibition of human PC3 cells after 48 hrs by sulforhodamine B assay; settings: PC-3, 48 h
[31] = test system: SR; assay: Growth inhibition of human SR cells after 48 hrs by sulforhodamine B assay
[32] = test system: OVCAR-3; assay: Growth inhibition of human OVCAR3 cells after 48 hrs by sulforhodamine B assay; settings: OVCAR-3, 48 h
[33] = test system: NCI-H460; assay: Growth inhibition of human NCI-H460 cells after 48 hrs by sulforhodamine B assay; settings: NCI-H460, 48 h
[34] = test system: ACHN; assay: Growth inhibition of human ACHN cells after 48 hrs by sulforhodamine B assay
[35] = test system: LOX IMVI; assay: Growth inhibition of human LOXIMVI cells after 48 hrs by sulforhodamine B assay
[36] = test system: Paracentrotus lividus; assay: Microtubule destabilizing activity in sea urchin free-swimming blastula assessed as embryo spinning treated at 9 to 10 hrs post-fertilization measured after 0.15 to 15 hrs
[37] = test system: U-251; assay: Growth inhibition of human U251 cells after 48 hrs by sulforhodamine B assay; settings: U-251, 48 h
[38] = test system: MDA-MB-435; assay: Growth inhibition of human MDA-MB-435 cells after 48 hrs by sulforhodamine B assay; settings: MDA-MB-435, 48 h
[39] = test system: DU-145; assay: Growth inhibition of human DU145 cells after 48 hrs by sulforhodamine B assay; settings: DU-145, 48 h
[40] = test system: CCRF-CEM; assay: Growth inhibition of human CCRF-CEM cells after 48 hrs by sulforhodamine B assay
[41] = test system: MOLT-4; assay: Growth inhibition of human MOLT4 cells after 48 hrs by sulforhodamine B assay; settings: MOLT-4, 48 h
[42] = Growth inhibition of human SF539 cells after 48 hrs by sulforhodamine B assay; settings: SF-539, 48 h
[43] = Growth inhibition of human EKVX cells after 48 hrs by sulforhodamine B assay
[44] = test system: SW-620; assay: Growth inhibition of human SW620 cells after 48 hrs by sulforhodamine B assay; settings: SW-620, 48 h
[45] = test system: RPMI-8226; assay: Growth inhibition of human RPMI8226 cells after 48 hrs by sulforhodamine B assay; settings: RPMI-8226, 48 h
[46] = test system: SF-295; assay: Growth inhibition of human SF295 cells after 48 hrs by sulforhodamine B assay; settings: SF-295, 48 h
[47] = test system: Paracentrotus lividus; assay: Antimitotic activity in sea urchin fertilized egg assessed as cleavage arrest treated at 8 to 20 mins post-fertilization measured at 2.5 to 5.5 hrs post-fertilization
[48] = test system: NCI-H226; assay: Growth inhibition of human NCI-H226 cells after 48 hrs by sulforhodamine B assay; settings: NCI-H226, 48 h
[49] = test system: SK-MEL-2; assay: Growth inhibition of human SK-MEL-2 cells after 48 hrs by sulforhodamine B assay; settings: SK-MEL-2, 48 h
[50] = test system: MCF7; assay: Growth inhibition of human MCF7 cells after 48 hrs by sulforhodamine B assay; settings: MCF7, 48 h
[51] = test system: K562; assay: Growth inhibition of human K562 cells after 48 hrs by sulforhodamine B assay; settings: K562, 48 h
[52] = test system: A498; assay: Growth inhibition of human A498 cells after 48 hrs by sulforhodamine B assay; settings: A498, 48 h
[53] = Growth inhibition of human HCC2998 cells after 48 hrs by sulforhodamine B assay; settings: HCC 2998, 48 h
[54] = test system: HCT-116; assay: Growth inhibition of human HCT116 cells after 48 hrs by sulforhodamine B assay; settings: HCT-116, 48 h
[55] = test system: KM12; assay: Growth inhibition of human KM12 cells after 48 hrs by sulforhodamine B assay; settings: KM12, 48 h
[56] = Growth inhibition of human NCI-ADR-RES cells after 48 hrs by sulforhodamine B assay
[57] = test system: TK-10; assay: Growth inhibition of human TK10 cells after 48 hrs by sulforhodamine B assay; settings: TK-10, 48 h
[58] = test system: Malme-3M; assay: Growth inhibition of human MALME-3M cells after 48 hrs by sulforhodamine B assay
[59] = test system: SF-268; assay: Growth inhibition of human SF268 cells after 48 hrs by sulforhodamine B assay; settings: SF-268, 48 h
[60] = test system: 786-0; assay: Growth inhibition of human 786-0 cells after 48 hrs by sulforhodamine B assay; settings: 786-0, 48 h
[61] = test system: UACC-62; assay: Growth inhibition of human UACC62 cells after 48 hrs by sulforhodamine B assay; settings: UACC-62, 48 h
[62] = test system: HCT-15; assay: Growth inhibition of human HCT15 cells after 48 hrs by sulforhodamine B assay; settings: HCT-15, 48 h
[63] = test system: HL-60(TB); assay: Growth inhibition of human HL-60(TB) cells after 48 hrs by sulforhodamine B assay; settings: HL-60, 48 h

COc1ccc(-c2onc(N)c2-c2cc(OC)c3c(c2)OCO3)cc1
GI50 [1]: 6.74 µM
GI50 [2]: 4.41 µM
GI50 [3]: 1.4 µM
GI50 [4]: 4.2 µM
GI50 [5]: 8.8 µM
GI50 [6]: 2.43 µM
GI50 [7]: 4.59 µM
GI50 [8]: 10.6 µM
GI50 [9]: 2.94 µM
GI50 [10]: 5.62 µM
GI50 [11]: 3.08 µM
GI50 [12]: 2.45 µM
GI50 [13]: 0.796 µM
GI50 [14]: 6.35 µM
GI50 [15]: 1.75 µM
GI50 [16]: 2.44 µM
GI50 [17]: 2.74 µM
GI50 [18]: 3.75 µM
EC [19]: 0.2 µM
GI50 [20]: 3.69 µM
GI50 [21]: 5.98 µM
GI50 [22]: 14.3 µM
GI50 [23]: 1.49 µM
GI50 [24]: 0.538 µM
GI50 [25]: 4.26 µM
GI50 [26]: 2.94 µM
GI50 [27]: 16.1 µM
GI50 [28]: 3.16 µM
GI50 [29]: 5.13 µM
GI50 [30]: 4.28 µM
GI50 [31]: 0.449 µM
GI50 [32]: 2.39 µM
GI50 [33]: 3.04 µM
GI50 [34]: 6.74 µM
GI50 [35]: 3.26 µM
EC [36]: >10 µM
GI50 [37]: 2.31 µM
GI50 [38]: 0.29 µM
GI50 [39]: 3.99 µM
GI50 [40]: 2.47 µM
GI50 [41]: 3.28 µM
GI50 [42]: 3.25 µM
GI50 [43]: 6.58 µM
GI50 [44]: 0.495 µM
GI50 [45]: 4.07 µM
GI50 [46]: 2.32 µM
EC [47]: >4 µM
GI50 [48]: 28 µM
GI50 [49]: 1.32 µM
GI50 [50]: 0.962 µM
GI50 [51]: 0.519 µM
GI50 [52]: 1.81 µM
GI50 [53]: 2.77 µM
GI50 [54]: 2.01 µM
GI50 [55]: 2.23 µM
GI50 [56]: 0.684 µM
GI50 [57]: 12.3 µM
GI50 [58]: 8.51 µM
GI50 [59]: 13.3 µM
GI50 [60]: 6.56 µM
GI50 [61]: 2.45 µM
GI50 [62]: 1.14 µM
GI50 [63]: 1.3 µM
